Among the data in patent publication US8486920B2, “Composition and method for controlling plant diseases” (priority 2008, dated 2013) are Actual control value values, retold here.

Each structure is given as a SMILES string. Where two headings read alike, the source gives them in different places.

This assay deals with Pythium ultimum, pathogen of cucumber damping-off. The format is in vivo. To be noted: cucumber (Sagamihanjiro) seed treatment, 18° C., 13 days. The source says:
An acetone solution of ethaboxam and an acetone solution of tolclofos-methyl were mixed to prepare mixed liquids containing ethaboxam and tolclofos-methyl in predetermined concentration. These mixed liquids were adhered on the surface of cucumber (Sagamihanjiro) seeds and allowed to stand still overnight. A plastic pot was filled with sandy soil and the seeds were disseminated on it. Then the seeds were covered with sandy soil which had been mixed with a bran medium on which Pythium ultimum, pathogen of cucumber damping-off, had been allowed to grow. They were irrigated and allowed to grow at 18° C. under humidity for 13 days, and thereafter control effect was checked.
As a comparison, acetone solutions containing ethaboxam in the predetermined concentration and acetone solutions containing tolclofos-methyl in the predetermined concentration were prepared and subjected to similar tests.
The incidence of disease was calculated by Equation 1 and the control value was calculated by Equation 2 based on the incidence of disease.
A: Incidence of disease of plant in untreated area
B: Incidence of disease of plant in treated area
E=X+Y−(X×Y)/100 “Equation 2”

On to `CCNc1nc(CC)c(C(=O)NC(C#N)c2cccs2)s1` (stereo not shown) [Ethaboxam], for which the Actual control value is reported as 25% (ethaboxam alone 5 g ai/100 kg-seed) and 58% (ethaboxam alone 10 g ai/100 kg-seed).
For `COP(=S)(OC)Oc1c(Cl)cc(C)cc1Cl` [tolclofos-methyl], the Actual control value is, setting by setting: (tolclofos-methyl alone 100 g ai/100 kg-seed) 0.0%; (tolclofos-methyl alone 200 g ai/100 kg-seed) 0.0%.
